Measured values from patent publication US20220160714A1, “METHODS FOR TREATING COLORECTAL CANCER” (ICAHN SCHOOL OF MEDICINE AT MOUNT SINAI, priority 2019, published 2022).
Structures can show the parent of a compound that is named as a salt.

Tested on: patient's personalized Drosophila model 006.1
Test: Trametinib combination drug screen (Table 4B, experimental pupae numbers)
Type: in vivo
Protocol: After food was solidified, a mixture of experimental and control embryos (at a 1:2 ratio based on expected Mendelian ratios) were aliquoted into each drug/food tube (15 μl/tube). […] Embryos for drug screening were generated from the following cross in cages: w/Y; UAS-006.1; UAS ago^RNAi UAS-apc^RNAi/Stub-gal80-T Xw UAS-dicer2; +; byn-gal4 UAS-GFP tub-gal80^ts/TM6, Hu, Tb. Embryos were obtained from each cage for 4-5 consecutive days by providing daily a fresh apple juice plate with yeast paste. Egg lays were performed at 22° C. to minimize transgene expression during embryogenesis to prevent embryonic defects or lethality that could not potentially be rescued by drug feeding. After embryos were aliquoted, drug tubes were transferred to 25° C. to induce transgene expression. After 2 weeks, the number of surviving experimental pupae (EP) were counted in each tube.
DMSO and Trametinib alone served as controls. […] Statistical analysis was performed as described above.

[1] = drug screened in combination with trametinib
[2] = drug screened in combination with trametinib, mean of 8 replicates

SMILES | EP (raw experimental pupae numbers), replicate 1 [1] | EP (raw experimental pupae numbers), replicate 2 [1] | EP (raw experimental pupae numbers), replicate 3 [1] | EP (raw experimental pupae numbers), replicate 4 [1] | EP (raw experimental pupae numbers), replicate 5 [1] | EP (raw experimental pupae numbers), replicate 6 [1] | EP (raw experimental pupae numbers), replicate 7 [1] | EP (raw experimental pupae numbers), replicate 8 [1] | EP mean [2] | EP mean (in vivo) | EP (raw experimental pupae numbers), replicate 1 (in vivo) | EP (raw experimental pupae numbers), replicate 2 (in vivo) | EP (raw experimental pupae numbers), replicate 3 (in vivo) | EP (raw experimental pupae numbers), replicate 4 (in vivo) | EP (raw experimental pupae numbers), replicate 5 (in vivo) | EP (raw experimental pupae numbers), replicate 6 (in vivo) | EP (raw experimental pupae numbers), replicate 7 (in vivo) | EP (raw experimental pupae numbers), replicate 8 (in vivo)
O=C1CCc2ccc(OCCCCN3CCN(c4cccc(Cl)c4Cl)CC3)cc2N1 [aripiprazole] | 0 | 0 | 1 | 0 | 0 | 2 | 1 | 2 | 0.75 |  |  |  |  |  |  |  |  | 
CN1[C@@H]2CC[C@H]1C[C@@H](OC(c1ccccc1)c1ccccc1)C2 [benztropine] | 0 | 0 | 4 | 2 | 3 | 1 | 0 | 3 | 1.652 |  |  |  |  |  |  |  |  | 
O=c1ccc2ccc(OCCCCN3CCN(c4cccc5sccc45)CC3)cc2[nH]1 [brexpiprazole] | 0 | 0 | 1 | 1 | 2 | 0 | 3 | 1 | 1 |  |  |  |  |  |  |  |  | 
CCC[C@@H]1CC(=O)N([C@@H](CC)C(N)=O)C1 [brivaracetam] | 0 | 0 | 2 | 0 | 2 | 1 | 1 | 1 |  | 0.875 |  |  |  |  |  |  |  | 
CCN(CC)CCNC(C(=O)OCCC(C)C)c1ccccc1 (stereo not drawn) [camylofine dihydrochloride] | 0 | 0 | 1 | 0 | 6 | 1 | 0 | 0 | 1 |  |  |  |  |  |  |  |  | 
CN(C)C(=O)N[C@H]1CC[C@H](CCN2CCN(c3cccc(Cl)c3Cl)CC2)CC1 [cariprazine hydrochloride] | 2 | 0 | 0 | 2 | 2 | 0 | 0 | 3 | 1.125 |  |  |  |  |  |  |  |  | 
CN(C)CCCN1c2ccccc2Sc2ccc(Cl)cc21.Cl [chloipromazine HCl] | 0 | 1 | 1 | 1 | 1 | 2 | 0 | 3 |  | 1.125 |  |  |  |  |  |  |  | 
C[C@H](CCC(=O)O)[C@H]1CC[C@H]2[C@@H]3[C@H](O)C[C@@H]4C[C@H](O)CC[C@]4(C)[C@H]3C[C@H](O)[C@]12C [cholic acid] |  |  |  |  |  |  |  |  |  | 1.375 | 1 | 0 | 2 | 1 | 1 | 1 | 3 | 2
CN1CCN(C2=Nc3cc(Cl)ccc3Nc3ccccc32)CC1 [clozapine] | 1 | 0 | 0 | 0 | 3 | 2 | 1 | 2 | 1.125 |  |  |  |  |  |  |  |  | 
O=C(c1ccc(F)c(F)c1Nc1ccc(I)cc1F)N1CC(O)([C@@H]2CCCCN2)C1 [cobimetinib] | 1 | 1 | 2 | 0 | 1 | 0 | 0 | 0 | 0.625 |  |  |  |  |  |  |  |  | 
CN1CCC(=C2c3ccccc3C=Cc3ccccc32)CC1 [cyproheptadine HCl] | 0 | 0 | 0 | 0 | 3 | 0 | 1 | 3 | 0.875 |  |  |  |  |  |  |  |  | 
CCOc1ccc(Cc2cc([C@@H]3O[C@H](CO)[C@@H](O)[C@H](O)[C@H]3O)ccc2Cl)cc1 [dapagliflozin] | 0 | 1 | 1 | 1 | 3 | 5 | 2 | 0 | 1.625 |  |  |  |  |  |  |  |  | 
OC[C@H]1O[C@@H](c2ccc(Cl)c(Cc3ccc(O[C@H]4CCOC4)cc3)c2)[C@H](O)[C@@H](O)[C@@H]1O [empagliflozin] | 4 | 0 | 0 | 2 | 5 | 2 | 1 | 2 | 2 |  |  |  |  |  |  |  |  | 
NC(N)=Nc1nc(CSCCC(N)=NS(N)(=O)=O)cs1 [famotidine] | 0 | 0 | 0 | 0 | 1 | 2 | 0 | 2 |  | 0.625 |  |  |  |  |  |  |  | 
O=c1[nH]c2ccccc2n1CCN1CCN(c2cccc(C(F)(F)F)c2)CC1 [flibanserin] | 0 | 0 | 3 | 0 | 0 | 0 | 1 | 0 | 0.5 |  |  |  |  |  |  |  |  | 
CNCCC(Oc1ccc(C(F)(F)F)cc1)c1ccccc1 (stereo not drawn) [fluoxetine] | 2 | 2 | 0 | 0 | 7 | 1 | 0 | 1 |  | 1.625 |  |  |  |  |  |  |  | 
CC(C)n1c(/C=C/C(O)CC(O)CC(=O)O)c(-c2ccc(F)cc2)c2ccccc21 (stereo not drawn) [fluvastatin] | 0 | 0 | 0 | 0 | 0 | 0 | 0 | 2 | 0.25 |  |  |  |  |  |  |  |  | 
Cc1ccc(C)c(OCCCC(C)(C)C(=O)O)c1 [gemfibrozil] | 0 | 1 | 0 | 0 | 3 | 0 | 0 | 0 | 0.5 |  |  |  |  |  |  |  |  | 
O=C(CCCN1CCC(O)(c2ccc(Cl)cc2)CC1)c1ccc(F)cc1 [haloperidol] | 0 | 0 | 2 | 2 | 2 | 1 | 1 | 1 | 1.125 |  |  |  |  |  |  |  |  | 
CC1Cc2ccccc2N1NC(=O)c1ccc(Cl)c(S(N)(=O)=O)c1 (stereo not drawn) [indapamide] | 0 | 0 | 1 | 0 | 2 | 2 | 0 | 4 | 1.125 |  |  |  |  |  |  |  |  | 
